Measurements as given in patent US12453725B2, “Treatment of inflammatory disease” (Celleron Therapeutics Limited, priority 2019, dated 2025).

Legend:
colon26 tumours = assay: RNAseq and qPCR of colon26 tumours; type: in vivo, Balb/c mice
Description: To assess gene expression in tumours that were growing in vivo, we evaluated the effect of CXD101 in the syngeneic colon26 colon carcinoma model in tumours grown subcutaneously in Balb/c mice, with CXD101 given orally for two 5-day consecutive periods and performed RNAseq on RNA purified from the tumours. Formalin-fixed paraffin-embedded samples were also prepared to assess by immunohistochemistry (IHC) the tumour micro-environment.
The effect was dose-dependent, as more tumour-inhibition occurred with a higher dose of CXD101 (50 mg/kg compared to 15 mg/kg). […] We performed RNA seq on polyA-enriched RNA prepared from the tumours. In a similar way to the analysis of colon26 in vitro, the RNAseq data was aligned to the reference M. musculus genome (mm10) with STAR aligner and analysed for differential expression. […] We then assessed whether the same genes identified in the in vitro treated colon26 cells were similarly regulated in vivo.

A20 tumours = assay: Syngeneic A20 B cell lymphoma model; type: in vivo, mouse; details: CXD101 50 mg/kg
From the text: In order to rule out that the effects of the combined therapy were specific to the colon26 and MC38 colorectal cancer model, we widened the study to the syngeneic A20 B cell lymphoma model (FIG. 10). A20 tumours are reported to express high levels of PD-L1 and are responsive to immunomodulatory antibodies (32).

[1] = system: mouse colorectal colon26 cells; assay: Proliferation of colon26 cells; type: cell-based; details: dose- and time-dependent
Description: Three human colorectal adenocarcinoma cell lines: SW620 (ATCC® CCL-227™), HCT-15 (ATCC® CCL-225™), LoVo (ATCC® CCL-229™), and one mouse colon carcinoma cell line: CT26 (ATCC® CRL-2638™) were obtained from ATCC. Human cell lines were cultured in DMEM (Lonza Group, Switzerland), while CT26 in RPMI (Biowest, France). The media were supplemented with 10% FBS and 1% penicillin-streptomycin (Lonza Group, Switzerland). Cells were cultured under standard conditions.
In order to assess the cytotoxicity of CXD101, cells were seeded onto 96-well plates overnight and the next day were dosed with CXD101 and incubated for 72 h or 120 h. Next, 100 μl of Thiazolyl Blue Tetrazolium Bromide (MTT, Sigma-Aldrich, USA) was added into a well (final concentration […]) and incubated for 2 h at 37° C. After that medium was discarded and formazan crystals were dissolved in 100 μl DMSO (VWR International, USA) by shaking for 15 minutes. Absorbance was read by Omega FLUOstar plate reader (BMG Labtech Ltd, Germany) at the 584 nm wavelength. Data were analysed and IC50 doses calculated in GraphPad Prism (GraphPad Software, USA).

SW620 cells = assay: qPCR of single genes, SW620 cells; type: cell-based, human
Description: Total RNA purified from DMSO- or CXD101 treated cells was transcribed into cDNA according to the manufacturer's instructions (iScript cDNA Synthesis Kit, Bio-Rad, USA). qPCR was conducted according to the manufacturer's protocol (SsoAdvanced Universal SYBR Green Supermix, Bio-Rad Laboratories, USA) on CFX Connect Real-Time System thermocycler (Bio-Rad Laboratories, USA).

Cc1nn(C)cc1CN1CCC(c2ccc(C(=O)Nc3ccccc3N)cc2)CC1 [CXD101, N-(2-aminophenyl)-4-(1-[(1,3-dimethyl-1H-pyrazol-4-yl)methyl]piperidin-4-yl)benzamide]
expression of Ccl20, Tnfsrf8 (colon26 tumours; colon26 tumours, qPCR): no effects
expression of H2-DMb1, H2-Eb1, H2-Dmb1, H2-T3, Ereg, Timp3, Ctla4, H2-D1, Ccl9, 1133 (colon26 tumours; colon26 tumours, qPCR): increased expression
expression of Rab3b (colon26 tumours; colon26 tumours, qPCR): decreased
number of DEGs in tumours in vivo (colon26 tumours; log 2 FC >1 and FDR <1%): 1141
A20 tumour progression (A20 tumours): modest effect
proliferation of colon26 cells [1]: inhibits proliferation
expression of HLA-B, HLA-F, HLA-DPA1, HLA-DQB1, CTLA4, CDKN1A, TIMP3 (SW620 cells): increases expression
expression of PHGDH, BCL2L15 (SW620 cells): decreases
expression of REPIN1 (SW620 cells): no effect
